These results are taken from ChEMBL document CHEMBL1201862, “PubChem BioAssay data set” (2004).

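These data come from cells grown in 96-well plates and exposed to compound for 48 hours at five concentrations. Here, GI50 denotes the concentration required for 50% inhibition of growth.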 The source made the active and inactive calls. No stated cut-off is given here; in the data, active = GI50 up to about 1.1 µM and inactive = higher.

Test systems include OVCAR-4; Malme-3M; HCT-116; RXF 393; OVCAR-3; SK-MEL-2; HOP-92; NCI-H522; HOP-62; SNB-75; SR; NCI-H23; SW-620; U-251; SK-MEL-5; CCRF-CEM; TK-10; HCT-15; NCI/ADR-RES.
Holding throughout (assay): DTP human tumour cell line panel, 48 h

For the compound `S=C1SCN(C2CCCCCCCCCCC2)CN1C1CCCCCCCCCCC1`, the GI50 with OVCAR-4 was 86.7 µM (inactive); with Malme-3M, > 100 µM (inactive); in the test with HCT-116, > 100 µM (inactive); in the test with RXF 393 it was > 100 µM (inactive); in the test with OVCAR-3, 34.7 µM (inactive); in the test with SK-MEL-2 it was > 100 µM (inactive). In addition, the GI50 with HOP-92 is > 100 µM (inactive); in the test on NCI-H522 it was 67.5 µM (inactive); with HOP-62 it was 67.6 µM (inactive); in the test with SNB-75 it was > 100 µM (inactive); with SR, 71.6 µM (inactive); in the test on NCI-H23, > 100 µM (inactive). The GI50 with SW-620 is > 100 µM (inactive); in the test on U-251, > 100 µM (inactive); with SK-MEL-5 it was > 100 µM (inactive); in the test with CCRF-CEM, 34.4 µM (inactive); in the test on TK-10, > 100 µM (inactive); in the test on HCT-15, > 100 µM. In addition, in the test with NCI/ADR-RES, the GI50 is > 100 µM (inactive).
Consider `O=C1N[C@@H]2c3c(Br)sc(Br)c3C(=O)[C@@H]2N1`, for which the GI50 was 3.94 µM (inactive) with OVCAR-4; 4.52 µM (inactive) in the test with Malme-3M; 1.89 µM (inactive) in the test on HCT-116; 4.94 µM (inactive) with RXF 393; 2.59 µM (inactive) with OVCAR-3; 4.82 µM (inactive) in the test on SK-MEL-2. Moreover, the GI50 with HOP-92 is 5.56 µM (inactive); with NCI-H522 it was 5.04 µM (inactive); in the test with HOP-62, 6.65 µM (inactive); in the test on SNB-75, 7.73 µM (inactive); with SR it was 1.74 µM (inactive); in the test with NCI-H23, 4.43 µM (inactive). Also, the GI50 with SW-620 was 1.77 µM (inactive); in the test on U-251, 2.53 µM (inactive); in the test on SK-MEL-5, 9.29 µM (inactive); with CCRF-CEM it was 0.678 µM (active); in the test with TK-10, 2.24 µM (inactive); in the test with HCT-15, 3.16 µM. Further, the GI50 in the test with NCI/ADR-RES was 15.4 µM (inactive).
As to `COc1ccccc1C#C/C=C\C#Cc1ccccc1C#N`, the GI50 in the test with OVCAR-4 was 96.8 µM (inactive); in the test with Malme-3M, 9.98 µM (inactive); with HCT-116, 7.35 µM (inactive); in the test on RXF 393, 7.98 µM (inactive); in the test on OVCAR-3, 4.4 µM (inactive); in the test on SK-MEL-2 it was 14.9 µM (inactive). For the same compound, the GI50 is 31.7 µM (inactive) in the test on HOP-92; 5.14 µM (inactive) with NCI-H522; 14.5 µM (inactive) in the test on HOP-62; 28.7 µM (inactive) with SNB-75; 4.08 µM (inactive) with SR; 5.61 µM (inactive) in the test with NCI-H23. In addition, the GI50 in the test with SW-620 was 6.32 µM (inactive); in the test on U-251 it was 9.18 µM (inactive); in the test with SK-MEL-5, 2.09 µM (inactive); in the test with CCRF-CEM, 5.26 µM (inactive); with TK-10, 20.7 µM (inactive); in the test with HCT-15 it was 6.93 µM. In addition, the GI50 in the test on NCI/ADR-RES was 10.4 µM (inactive).
For `O=C(NCCCNCCCNC(=O)c1cc(-c2ccccc2)nc2ccccc12)c1cc(-c2ccccc2)nc2ccccc12`, the GI50 with OVCAR-4 is 1.74 µM (inactive); in the test with Malme-3M, 2.13 µM (inactive); in the test with HCT-116, 1.73 µM (inactive); with RXF 393 it was 1.77 µM (inactive); with OVCAR-3 it was 1.46 µM (inactive); with SK-MEL-2, 2 µM (inactive). Further, the GI50 with HOP-92 is 2.02 µM (inactive); in the test on NCI-H522, 2.01 µM (inactive); in the test on HOP-62 it was 1.11 µM (active); in the test with SNB-75, 1.49 µM (inactive); in the test on SR, 1.67 µM (inactive); with NCI-H23, 1.86 µM (inactive). For the same compound, the GI50 was 2.39 µM (inactive) in the test on SW-620; 1.69 µM (inactive) in the test with U-251; 1.78 µM (inactive) in the test on SK-MEL-5; 1.63 µM (inactive) in the test with CCRF-CEM; 1.91 µM (inactive) in the test with TK-10; 2.6 µM in the test with HCT-15. The GI50 in the test with NCI/ADR-RES is 2.39 µM (inactive).
In the case of `O=C(C1OC1c1ccc(O)cc1)C12CC3CC(CC(C3)C1)C2` (configuration not stated), the GI50 in the test on OVCAR-4 was 51.3 µM (inactive); in the test on Malme-3M, 45.1 µM (inactive); in the test on HCT-116, 41.5 µM (inactive); in the test with RXF 393 it was > 78.3 µM (inactive); in the test on OVCAR-3, 45.1 µM (inactive); in the test with SK-MEL-2, > 100 µM (inactive). Moreover, the GI50 is 32.3 µM (inactive) in the test with HOP-92; 7.29 µM (inactive) in the test with NCI-H522; > 100 µM (inactive) in the test with HOP-62; > 100 µM (inactive) in the test with SNB-75; 30.1 µM (inactive) in the test on SR; 97.9 µM (inactive) with NCI-H23. Besides, the GI50 in the test with SW-620 is 27.7 µM (inactive); in the test on U-251 it was > 76 µM (inactive); with SK-MEL-5 it was 61.7 µM (inactive); in the test with CCRF-CEM, 5.92 µM (inactive); in the test on TK-10, 58.3 µM (inactive); in the test with HCT-15, 53.2 µM. In the test on NCI/ADR-RES, the GI50 was 52.1 µM (inactive).
Take `O=P1(C(O)/C=C/c2ccccc2)N(Cc2ccccc2)[C@H](c2ccccc2)[C@@H](c2ccccc2)N1Cc1ccccc1` (some centres not stated): the GI50 in the test on OVCAR-4 is 13 µM (inactive); in the test on Malme-3M it was 27.8 µM (inactive); in the test with HCT-116, 8.15 µM (inactive); with RXF 393 it was 21.3 µM (inactive); in the test on OVCAR-3 it was 16.9 µM (inactive); with SK-MEL-2, 14.1 µM (inactive). In addition, the GI50 is 11 µM (inactive) in the test on HOP-92; 4.9 µM (inactive) with NCI-H522; 29.8 µM (inactive) in the test with HOP-62; 19 µM (inactive) in the test with SNB-75; 4.75 µM (inactive) with SR; 13.1 µM (inactive) in the test with NCI-H23. The GI50 with SW-620 was 26.1 µM (inactive); in the test with U-251, 19.9 µM (inactive); with SK-MEL-5 it was 14.7 µM (inactive); in the test on CCRF-CEM it was 10.5 µM (inactive); in the test on TK-10, 26 µM (inactive); in the test with HCT-15 it was 32.1 µM. Further, in the test with NCI/ADR-RES, the GI50 is 26 µM (inactive).
With `CCOC(=O)C1(C(=O)OCC)C[C@H]2CON=C2[C@@H]1c1ccc(C(F)(F)F)cc1`, the GI50 in the test with OVCAR-4 is 17.7 µM (inactive); with Malme-3M, > 100 µM (inactive); in the test on HCT-116, 29.6 µM (inactive); in the test with RXF 393, 43.6 µM (inactive); in the test on OVCAR-3, 40.1 µM (inactive); with SK-MEL-2 it was 62.2 µM (inactive). Moreover, the GI50 in the test on HOP-92 was 50.4 µM (inactive); in the test on NCI-H522, 24.7 µM (inactive); with HOP-62, 21.9 µM (inactive); in the test with SNB-75 it was 62.5 µM (inactive); in the test with SR, 35.4 µM (inactive); in the test on NCI-H23, 58.7 µM (inactive). The GI50 in the test with SW-620 was 68.1 µM (inactive); in the test with U-251, 64.7 µM (inactive); in the test with SK-MEL-5 it was 30.6 µM (inactive); in the test on CCRF-CEM, 7.96 µM (inactive); in the test on TK-10 it was 67 µM (inactive); in the test with HCT-15, 38.6 µM. The GI50 in the test on NCI/ADR-RES was 32.6 µM (inactive).
For the compound `C=C(C)CCC(=O)[C@](C)(O)[C@H]1[C@H](O)C[C@@]2(C)[C@@H]3CCc4c(cc(OC5OC(CO)C(O)C(O)C5O)c(O)c4C)C3(C)C(=O)C[C@]12C` (some centres not stated), the GI50 with OVCAR-4, in the test with Malme-3M, in the test on HCT-116, with RXF 393, in the test on OVCAR-3 and in the test on SK-MEL-2 was > 100 µM (inactive) throughout. In addition, the GI50 in the test with HOP-92, in the test on NCI-H522, in the test with HOP-62, in the test with SNB-75, in the test with SR and in the test on NCI-H23 was > 100 µM (inactive) in each case. For the same compound, the GI50 in the test on SW-620 is > 100 µM (inactive); in the test with U-251 it was > 100 µM (inactive); in the test with SK-MEL-5, > 100 µM (inactive); in the test on CCRF-CEM it was > 100 µM (inactive); in the test with TK-10, > 100 µM (inactive); with HCT-15, > 100 µM. For the same compound, the GI50 in the test on NCI/ADR-RES was > 100 µM (inactive).

A word on the GI50: it is the concentration at which growth is held to half of that of the control.
